According to patent US10131707B2, “Treatment of sepsis and septic shock” (THE GENERAL HOSPITAL CORPORATION, priority 2014, dated 2018):
Entries after “also recorded” stand apart in the source; their conditions may differ. Where two headings read alike, the source gives them in different places.

Assays:
[1] = test system: mouse model of CLP-induced septic shock; assay: Survival in CLP-induced sepsis model, inhibitors given intraperitoneally; assay type: in vivo, male C57BL/6J mice; details: for Survival (in words): i.p. 1 h after CLP, SAHA 50 mg/kg, Cl-amidine 80 mg/kg, up to 10 days, compared with DMSO vehicle
Experimental: Three experiments were carried out. In experiment I, HL-60 neutrophilic cells grown on a coverslip were treated with LPS (100 ng/ml) in the presence or absence of SAHA (5 […]]) for 3 h, and subjected to immuno-staining with anti-Cit H3 antibody to assess effect of SAHA on Cit H3 production under a fluorescence microscope. The ratio of Cit H3 positive cells was calculated as mean±SD (n=3). In experiment II, male C57BL/6J mice were subjected to CLP, and 1 hour later randomly divided into three groups for intraperitoneal injection as follows: (1) dimethyl sulfoxide (DMSO), (2) SAHA (50 mg/kg) in DMSO, and ([…]). In a separate experiment III, the male C57BL/6J mice were divided into control and treatment groups, and subjected to CLP. One hour later, immunoglobulin (IgG) and Cit H3 antibody (20 mg/kg iv; n=5/group) were injected into the control and treatment groups, respectively. All survival was monitored for 5-10 days.
Animals. Male C57B1/6J mice (6-8 weeks) weighing 25-30 g were purchased from Jackson Labs (Bar Harbor, Me.). All animals were housed in plastic cages and had access to chow and water throughout the experiment. They were kept at room temperature (24±2° C.) and exposed to alternative cycles of 12 h light and darkness. During the experiments the animals were monitored up to 10 days, and survival rate was compared between the experimental and control groups.
CLP-induced sepsis model. The CLP murine model,^15 modified as described previously, was used to induce fecal peritonitis.^16 In brief, peritoneal cavity was opened under inhaled isoflurane anesthesia. […]
Administration of inhibitors and experimental design. […] Mortality was recorded for up to 10 days post procedure.
Statistical analysis. Statistical differences were determined by Student t tests and ANOVA for two group and multiple group comparisons respectively (SPSS™ statistical software package, Chicago, Ill.). Kaplan-Meier survival curves were analyzed by using the MedCalc™ Statistical Software (Mariakerke, Belgium) for the in vivo studies. […]

Cit H3 = assay: Production of Cit H3 after inhibition of PAD activity (data not shown)
[2] = test system: collagen-induced arthritis; details: murine; cited from earlier work
[3] = test system: mouse model of CLP-induced septic shock; details: literature reference 10; cited from earlier work
LPS-induced shock = details: rodent; cited from earlier work
HL-60 neutrophilic cells = assay: LPS-induced Cit H3 production and NETs formation in HL-60 cells, immunostaining with anti-Cit H3 antibody; assay type: cell-based; details: LPS 100 ng/ml, 3 h
Experimental: Three experiments were carried out. In experiment I, HL-60 neutrophilic cells grown on a coverslip were treated with LPS (100 ng/ml) in the presence or absence of SAHA (5 […]]) for 3 h, and subjected to immuno-staining with anti-Cit H3 antibody to assess effect of SAHA on Cit H3 production under a fluorescence microscope. The ratio of Cit H3 positive cells was calculated as mean±SD (n=3). In experiment II, male C57BL/6J mice were subjected to CLP, and 1 hour later randomly divided into three groups for intraperitoneal injection as follows: (1) dimethyl sulfoxide (DMSO), (2) SAHA (50 mg/kg) in DMSO, and (3) Cl-amidine ([…]) in DMSO (n=10/group). In a separate experiment III, the male C57BL/6J mice were divided into control and treatment groups, and subjected to CLP. One hour later, immunoglobulin (IgG) and Cit H3 antibody (20 mg/kg iv; n=5/group) were injected into the control and treatment groups, respectively. All survival was monitored for 5-10 days.
Cell culture and treatment. HL-60 cells obtained from American Type Culture Collection (ATCC) were maintained in Iscove's modified DMEM medium (Invitrogen Life Technologies, Carlsbad, Calif.) supplemented with 20% fetal bovine serum (FBS). […] The ratio of Cit H3 positive stained cells to all cells was counted and calculated as mean±SD from three individual experiments.

Row | Structure (SMILES) | Survival ([1]; 80 mg/kg i.p. 1 h after CLP, monitored 10 days, n=10, DMSO vehicle 0%) [%] | Survival (in words) [1] | Production of Cit H3 (Cit H3) | Severity of collagen-induced arthritis [2] | Survival [3] | Survival (LPS-induced shock) | LPS-induced Cit H3 production (ratio of Cit H3 positive cells to all cells) (HL-60 neutrophilic cells; ATRA-differentiated HL-60 cells, with or without SAHA, n=3, P<0.05) | NETs formation after LPS insult (HL-60 neutrophilic cells; HL-60 neutrophilic cells)
1 | NC(=O)[C@H](CCCN=C(N)CCl)NC(=O)c1ccccc1 [Cl-amidine] | 42.5 | notably improved long term survival; also recorded: significantly improved survival | reduce the production of Cit H3 | reduce the severity | – | – | – | –
2 | O=C(CCCCCCC(=O)Nc1ccccc1)NO [SAHA, suberoylanilide hydroxamic acid] | – | notably improved long term survival | – | – | improves survival | significantly improves survival | inhibited H3 citrullination significantly; also recorded: suppresses LPS-induced Cit H3 production | significantly inhibited
